# Reference: PMC11997890, “In Vivo and In Vitro Pharmacokinetic Studies of a Dual Topoisomerase I/II Inhibitor” (ACS Pharmacology & Translational Science, 2025)
# Legend:
# CYP3A4 [1] = target: T1, CYP3A4 (Homo sapiens, UniProt P08684); test: Conversion of P8-D6 by recombinant CYP3A4; assay type: in vitro ADME
# T1 construct: host or cells: human liver microsomes (one value) / recombinant CYP enzyme (other value)
# Protocol: (§1) P8-D6 N-oxide was the most common metabolite for all incubations with subcellular fractions from the homogenized tissue. According to the detected MS-MS fragments (supplied as Supporting Information Chapter 2), it resulted from N-oxygenation of the nitrogen at the side chain since the unmodified fragment of P8-DO (m/z = 414.1) was detected. Furthermore, the detected fragment at m/z = 440.1 is most likely a carbocation at the remaining ethyl chain after splitting off the dimethylamine N-oxide further strengthening the theory of selectively forming this specific N-oxide. In addition, no relevant chemical shifts in the aromatic range of the ^1H NMR compared to P8-D6 and mono were observed (supplied as Supporting Information Chapter 2). Thus, no chemical modifications can have occurred on the aromatic rings, and all changes must therefore affect the side chain. […] To determine which enzymes were responsible for the conversion, seven recombinant CYP 450 isoenzymes recommended by the FDA’s “Guidance for Industry” and human FMO3 were used.
# Among the recombinant enzymes, P8-D6 is mostly metabolized to P8-D6 mono by CYP3A4 (0.34%, significant compared to any other enzyme, p < 0.0001) and 2D6 (0.17%, significant compared to 2C8, 1A2, 2C19, and 2C9, p < 0.005) (Figure E). […]
# CYP2C9 [2] = target: T2, CYP2C9 (Homo sapiens, UniProt P11712); test: Conversion of P8-D6 by recombinant CYP2C9; assay type: in vitro ADME
# T2 construct: host or cells: human liver microsomes (one value) / recombinant CYP enzyme (other value)
# Protocol: as §1
# The third and final in vitro metabolite, P8-DO, is a direct synthesis precursor of P8-D6 and results from oxidative O-desalkylation of the complete side chain (Figure ). […] The formation of P8-DO is mainly catalyzed by CYP2C9 (0.10%) and 2D6 (0.09%) (Figure E). […]
# CYP2C9 [3] = target: T2, CYP2C9; test: In vitro CYP inhibition, marker substrate diclofenac; assay type: in vitro ADME
# Protocol: (§2) To assess metabolizing enzyme-mediated drug interactions, P8-D6 was incubated with human liver (HLM) or recombinant CYP enzymes and the respective marker substrate according to the FDA (with the exception of using amitriptyline instead of S-mephenytoin). −
# (§3) However, as some conversions were catalyzed by several enzymes, the conversion rates in HLM increased (e.g., bupropion and diclofenac).
# (§4) To examine a possible in vitro CYP inhibition, the following CYP enzymes and marker substrates were investigated according to the FDA: , phenacetin (CYP1A2), bupropion (CYP2B6), amodiaquine (CYP2C8), diclofenac (CYP2C9), amitriptyline (CYP2C19), dextromethorphan (CYP2D6), testosterone (CYP3A4), and nifedipine (CYP3A4). Incubation was performed in a 0.2 mL reaction mix consisting of PBS buffer (pH 7.4), 1 mM marker substrate, 1 mM NADPH, and either 0.5 mg/mL recombinant CYP enzyme or human liver microsomes. P8-D6 was added for a final concentration of 0.5 μM, 1 μM, 5 μM, 10 μM, 25 μM, 50 μM, 100 μM, 500 μM, 1000 μM, and (in some cases) 5000 μM. Sample preparation was performed according to in vitro biotransformation.
# CYP3A4 [4] = target: T1, CYP3A4; test: In vitro CYP inhibition, marker substrate testosterone; assay type: in vitro ADME
# Protocol: as §2, §3, §4
# LDL = test: Binding to isolated plasma protein by ultrafiltration
# Protocol: (§5) To examine the effect of the P8-D6 plasma protein binding on the in vivo bioavailability, human and rat plasma was spiked in vitro and incubated with P8-D6. By using ultrafiltration to separate free P8-D6 from the protein-bound fraction, a plasma protein binding of 99% (Figure A) was estimated. However, neither human α-1-microglobulin (3.06%) nor human serum albumin (0.91%) is responsible for binding. According to initial findings, γ-globulins (94.59%), human transferrin (90.43%), LDL (87.99%), human α2-HS glycoprotein (85.29%), and human fibrinogen (78.89%) lead to binding of P8-D6.
# (§6) To examine the extent of plasma protein binding, 150 μL of blank samples of human plasma (1 mM) and rat plasma (1 mM), human albumin (1 mM, #A1653, Merck KGaA, Darmstadt); human α1-acid glycoprotein (1 mM; #G9885, Merck KGaA, Darmstadt); human α2-HS-glycoprotein (0.1 mM; #G0516, Merck KGaA, Darmstadt); human transferrin (0.2 mM; #T8158, Merck KGaA, Darmstadt); human fibrinogen (0.2 mM; #F3879, Merck KGaA, Darmstadt); LDL (0.2 mM; […]); and human γ-globulin (1 mM; #G4386, Merck KGaA, Darmstadt) were spiked with P8-D6 in the same final concentration as the protein and incubated in a shaking water bath at 37 °C for 120 min. Afterward, the unbound fraction of P8-D6 was separated by ultrafiltration (Vivaspin 500 10 000 MWCO filter). The sample preparation was performed according to plasma samples. Blank plasma samples served as the control samples.
# human fibrinogen = target: T3, human fibrinogen (Homo sapiens, UniProt P02671+P02675+P02679); test: as above
# T3 construct: purchased Merck KGaA, Darmstadt F3879
# Protocol: as §5, §6
# human α2-HS glycoprotein = target: T4, human α2-HS glycoprotein (Homo sapiens, UniProt P02765); test: as above
# T4 construct: purchased Merck KGaA, Darmstadt G0516
# Protocol: as §5, §6
# human serum albumin = target: T5, human serum albumin (Homo sapiens, UniProt P02768); test: as above
# T5 construct: purchased Merck KGaA, Darmstadt A1653
# Protocol: as §5, §6
# human = target: T6, human (Homo sapiens, UniProt P02763); test: as above
# T6 construct: purchased Merck KGaA, Darmstadt G9885
# Protocol: as §5, §6
# human transferrin = target: T7, human transferrin (Homo sapiens, UniProt P02787); test: as above
# T7 construct: purchased Merck KGaA, Darmstadt T8158
# Protocol: as §5, §6
# T2 sequence (P11712 whole entry): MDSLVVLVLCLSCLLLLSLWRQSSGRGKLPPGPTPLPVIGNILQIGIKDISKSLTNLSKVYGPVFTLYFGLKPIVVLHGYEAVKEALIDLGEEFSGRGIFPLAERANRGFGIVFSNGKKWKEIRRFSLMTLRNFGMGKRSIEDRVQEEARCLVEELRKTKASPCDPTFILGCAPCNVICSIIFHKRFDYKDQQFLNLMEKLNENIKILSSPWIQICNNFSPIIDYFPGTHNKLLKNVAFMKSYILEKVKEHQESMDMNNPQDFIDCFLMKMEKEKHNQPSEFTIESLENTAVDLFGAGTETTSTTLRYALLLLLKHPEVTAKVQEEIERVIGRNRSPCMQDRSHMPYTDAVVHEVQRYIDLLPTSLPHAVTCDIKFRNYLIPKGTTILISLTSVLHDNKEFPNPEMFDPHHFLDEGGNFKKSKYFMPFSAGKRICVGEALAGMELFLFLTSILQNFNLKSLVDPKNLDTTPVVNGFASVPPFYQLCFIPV
# T1 sequence (P08684 whole entry): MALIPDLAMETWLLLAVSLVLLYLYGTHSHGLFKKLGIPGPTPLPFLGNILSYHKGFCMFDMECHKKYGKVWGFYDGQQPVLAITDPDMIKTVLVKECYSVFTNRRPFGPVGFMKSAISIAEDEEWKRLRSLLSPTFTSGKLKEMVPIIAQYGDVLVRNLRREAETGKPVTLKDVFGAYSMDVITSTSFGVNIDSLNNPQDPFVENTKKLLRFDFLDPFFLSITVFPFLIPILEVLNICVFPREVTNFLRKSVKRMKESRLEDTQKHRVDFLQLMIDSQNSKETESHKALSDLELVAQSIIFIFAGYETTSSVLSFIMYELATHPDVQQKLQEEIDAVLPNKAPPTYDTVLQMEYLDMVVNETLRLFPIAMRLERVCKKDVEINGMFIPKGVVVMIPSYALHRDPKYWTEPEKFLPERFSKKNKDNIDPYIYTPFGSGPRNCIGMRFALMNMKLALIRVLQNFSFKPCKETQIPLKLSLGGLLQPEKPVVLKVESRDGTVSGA
# T6 sequence (P02763 19-201): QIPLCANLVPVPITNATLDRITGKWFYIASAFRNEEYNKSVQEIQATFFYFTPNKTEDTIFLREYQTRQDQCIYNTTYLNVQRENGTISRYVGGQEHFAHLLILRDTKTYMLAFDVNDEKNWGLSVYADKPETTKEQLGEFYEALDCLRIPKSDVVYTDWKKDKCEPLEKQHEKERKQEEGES
# T7 sequence (P02787 20-698): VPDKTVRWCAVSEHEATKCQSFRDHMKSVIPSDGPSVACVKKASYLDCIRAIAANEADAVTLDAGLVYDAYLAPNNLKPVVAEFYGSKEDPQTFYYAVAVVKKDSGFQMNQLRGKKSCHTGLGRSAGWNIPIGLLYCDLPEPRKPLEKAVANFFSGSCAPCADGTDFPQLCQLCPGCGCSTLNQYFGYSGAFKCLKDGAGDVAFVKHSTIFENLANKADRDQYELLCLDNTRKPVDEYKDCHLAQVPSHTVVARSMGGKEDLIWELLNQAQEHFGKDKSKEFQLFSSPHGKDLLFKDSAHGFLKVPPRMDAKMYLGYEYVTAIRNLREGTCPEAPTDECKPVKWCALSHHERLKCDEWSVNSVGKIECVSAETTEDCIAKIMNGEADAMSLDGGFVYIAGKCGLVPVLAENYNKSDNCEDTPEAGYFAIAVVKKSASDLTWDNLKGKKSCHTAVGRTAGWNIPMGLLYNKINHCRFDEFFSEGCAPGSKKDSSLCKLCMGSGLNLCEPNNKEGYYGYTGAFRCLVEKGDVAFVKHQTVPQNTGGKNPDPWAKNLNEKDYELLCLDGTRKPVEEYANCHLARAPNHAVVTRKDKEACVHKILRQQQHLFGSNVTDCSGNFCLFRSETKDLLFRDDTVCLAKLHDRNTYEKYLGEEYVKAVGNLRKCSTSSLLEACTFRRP
# T3 sequence (P02671 20-629 limits assumed): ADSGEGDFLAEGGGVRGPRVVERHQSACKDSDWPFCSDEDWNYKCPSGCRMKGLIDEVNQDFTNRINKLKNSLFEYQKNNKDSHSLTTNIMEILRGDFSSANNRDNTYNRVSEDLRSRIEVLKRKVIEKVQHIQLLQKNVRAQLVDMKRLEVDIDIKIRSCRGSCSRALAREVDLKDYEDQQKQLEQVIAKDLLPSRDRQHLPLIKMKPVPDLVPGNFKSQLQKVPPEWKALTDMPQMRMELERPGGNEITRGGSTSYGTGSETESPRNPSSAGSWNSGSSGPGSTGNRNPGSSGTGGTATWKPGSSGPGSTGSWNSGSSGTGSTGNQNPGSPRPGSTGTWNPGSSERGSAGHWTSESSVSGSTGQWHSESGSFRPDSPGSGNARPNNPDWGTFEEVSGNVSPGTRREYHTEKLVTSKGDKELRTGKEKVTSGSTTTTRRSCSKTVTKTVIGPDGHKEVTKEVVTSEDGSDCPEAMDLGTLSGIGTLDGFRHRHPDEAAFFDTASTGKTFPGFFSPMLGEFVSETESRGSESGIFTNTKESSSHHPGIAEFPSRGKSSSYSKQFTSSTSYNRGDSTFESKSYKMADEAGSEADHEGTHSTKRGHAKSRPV
# T3 sequence (P02675 31-491): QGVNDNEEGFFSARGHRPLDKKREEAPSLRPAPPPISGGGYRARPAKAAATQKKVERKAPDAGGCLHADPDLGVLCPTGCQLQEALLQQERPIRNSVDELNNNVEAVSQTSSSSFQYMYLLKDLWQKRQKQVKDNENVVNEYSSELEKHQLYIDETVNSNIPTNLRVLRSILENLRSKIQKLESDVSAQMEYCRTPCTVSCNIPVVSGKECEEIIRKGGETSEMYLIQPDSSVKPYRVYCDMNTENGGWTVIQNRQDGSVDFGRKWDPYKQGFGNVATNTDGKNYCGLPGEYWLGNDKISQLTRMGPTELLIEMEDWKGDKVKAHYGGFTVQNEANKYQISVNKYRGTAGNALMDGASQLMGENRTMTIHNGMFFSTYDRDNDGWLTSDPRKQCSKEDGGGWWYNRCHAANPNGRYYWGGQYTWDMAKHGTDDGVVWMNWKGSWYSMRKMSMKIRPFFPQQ
# T3 sequence (P02679 27-433 limits assumed): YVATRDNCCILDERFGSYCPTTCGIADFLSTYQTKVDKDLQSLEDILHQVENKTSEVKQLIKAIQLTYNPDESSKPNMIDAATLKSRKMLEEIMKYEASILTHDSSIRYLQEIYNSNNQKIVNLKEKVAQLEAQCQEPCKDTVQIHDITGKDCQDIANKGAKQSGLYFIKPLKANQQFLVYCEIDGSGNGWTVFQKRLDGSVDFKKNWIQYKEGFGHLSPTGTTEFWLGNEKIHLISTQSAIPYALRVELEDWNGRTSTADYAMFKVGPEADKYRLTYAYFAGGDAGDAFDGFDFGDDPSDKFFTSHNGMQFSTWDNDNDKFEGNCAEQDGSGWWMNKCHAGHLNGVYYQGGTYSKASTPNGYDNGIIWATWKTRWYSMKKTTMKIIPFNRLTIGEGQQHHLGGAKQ
# T4 sequence (P02765 19-367): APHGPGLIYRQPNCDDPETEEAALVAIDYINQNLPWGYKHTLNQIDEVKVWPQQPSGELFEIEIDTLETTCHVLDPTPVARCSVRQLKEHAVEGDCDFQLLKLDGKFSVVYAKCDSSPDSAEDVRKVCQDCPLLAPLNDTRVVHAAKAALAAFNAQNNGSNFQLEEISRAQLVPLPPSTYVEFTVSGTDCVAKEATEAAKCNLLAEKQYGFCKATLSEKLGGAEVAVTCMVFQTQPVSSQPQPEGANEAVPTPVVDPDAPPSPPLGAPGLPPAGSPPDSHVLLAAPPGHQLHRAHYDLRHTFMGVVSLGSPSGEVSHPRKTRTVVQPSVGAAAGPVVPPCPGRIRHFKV
# T5 sequence (P02768 25-609): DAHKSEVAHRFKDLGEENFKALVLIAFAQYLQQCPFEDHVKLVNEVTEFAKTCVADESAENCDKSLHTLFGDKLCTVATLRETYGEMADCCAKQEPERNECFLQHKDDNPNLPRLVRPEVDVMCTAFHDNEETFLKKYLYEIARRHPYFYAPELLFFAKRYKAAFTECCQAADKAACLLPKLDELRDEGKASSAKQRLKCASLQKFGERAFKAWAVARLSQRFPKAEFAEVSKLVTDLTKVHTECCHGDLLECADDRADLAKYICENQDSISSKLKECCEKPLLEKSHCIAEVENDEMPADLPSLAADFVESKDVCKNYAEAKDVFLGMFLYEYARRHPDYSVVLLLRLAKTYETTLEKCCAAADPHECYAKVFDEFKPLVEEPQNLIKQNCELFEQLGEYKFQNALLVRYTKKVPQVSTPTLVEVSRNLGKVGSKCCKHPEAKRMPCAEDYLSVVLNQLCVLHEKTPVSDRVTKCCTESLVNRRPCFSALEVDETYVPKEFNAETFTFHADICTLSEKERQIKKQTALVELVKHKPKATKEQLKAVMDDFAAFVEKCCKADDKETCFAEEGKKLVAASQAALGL
structure (smiles),measurement,setting,value
CNCCOc1nc2c3cnccc3cc(-c3cc(OC)c(OC)c(OC)c3)c2c2ccncc12 [P8-D6 mono],formation of metabolite from P8-D6,CYP3A4 [1],0.34%
COc1cc(-c2cc3ccncc3c3[nH]c(=O)c4cnccc4c23)cc(OC)c1OC [P8-DO],formation of metabolite from P8-D6,CYP2C9 [2],0.10%
"COc1cc(-c2cc3ccncc3c3nc(OCCN(C)C)c4cnccc4c23)cc(OC)c1OC [P8-D6, 6-(N,N-dimethyl-2-aminoethoxy)-11-(3,4,5-trimethoxyphenyl)-pyrido[3,4-c][1,9]-phenanthroline]",IC50,CYP2C9 [3]; HLM,162 µM
same,IC50,CYP2C9 [3]; recombinant CYP isoenzyme,71.4 µM
same,IC50,CYP3A4 [4]; HLM,165 µM
same,IC50,CYP3A4 [4]; recombinant CYP isoenzyme,94 µM
same,binding of P8-D6,LDL,87.99%
same,binding of P8-D6,human fibrinogen,78.89%
same,binding of P8-D6,human α2-HS glycoprotein,85.29%
same,binding of P8-D6,human serum albumin,0.91%
same,binding of P8-D6,human,3.06%
same,binding of P8-D6,human transferrin,90.43%
